One experiment deals with 293T. Briefly: MTT survival, 293T kidney cancer. It is filed as cell-based, human. Here is the method:
(§1) Next, in vitro cytotoxicity of the multiple compounds in various cell lines was evaluated, which also was performed using MTT colorimetric assay. […] Comparing breast cancer cells MCF-7 with other cancer cells, most selected compounds had higher inhibition activity to MCF-7 cells. Therefore, breast cancer cells MCF-7 were chosen to be the research target in the following experiments.

Another experiment has as its system H1335. Briefly: MTT survival, H1335 lung cancer. It is filed as cell-based, human. Conditions: H1335, 10 μM. Here is the method: as §1
For another experiment, the system named is Cal-27. As to the kind of experiment: MTT survival, Cal-27 oral cancer. As to conditions: Cal-27, 10 μM. It is filed as cell-based, human. On the procedure:
as §1

The test system of another experiment is A549. As to the kind of experiment: MTT survival, A549 lung cancer. It is filed as cell-based, human. As to conditions: A549, 10 μM. On the procedure:
as §1

Another experiment concerns Ca-922. Briefly: MTT survival, Ca-922 oral cancer. It is filed as cell-based, human. Conditions: Ca-922, 10 μM. On the procedure:
as §1

A further experiment relates to A375. As to the kind of experiment: MTT survival, A375 melanoma. Conditions: A375, 10 μM. It is filed as cell-based, human. On the procedure: as §1
Another experiment deals with MCF-7. Briefly: MTT survival, MCF-7 breast cancer. It is filed as cell-based, human. As to conditions: MCF-7, 10 μM. Here is the method:
as §1

A further experiment concerns A2058. As to the kind of experiment: MTT survival, A2058 melanoma. It is filed as cell-based, human. As to conditions: A2058, 10 μM. Here is the method: as §1
Experiment [1] relates to breast cancer cells MCF-7. As to the kind of experiment: Cell cycle analysis by flow cytometry (PI staining). It is filed as cell-based, human. As to conditions: MCF-7, 5 μM, 24 hours; control 11.54%. On the procedure:
This experiment was performed by treating breast cancer cells MCF-7 with compounds, and then cell cycle was analyzed using flow cytometry known by the skilled person in the art. Firstly, breast cancer cells MCF-7 were treated with the prepared compounds (5 μM) for 24 hours and stained with propidium iodide (PI). Approximately 10000 cells from each sample were analyzed with FACScan flow cytometer and software. […] The sub-G1 DNA Peaks for compounds 4, 5, 7, 18, 21, 23 and 24 were 20.64%, 17.92%, 26.22%, 11.95%, 19.85%, 4.35% and 33.89% respectively (data not shown), while the sub-G1 DNA peak for control (without any drug treatment) was 11.54%.
For orientation: A flow cytometer gives signals particle by particle.

The next experiment relates to mouse melanoma cells B16. Briefly: MTT growth inhibition on murine melanoma cells (FIG. 1). It is filed as cell-based. Conditions: 10 μM, 48 hours. On the procedure:
In addition, for recognizing whether the prepared disulfides had cytotoxicity to normal cells and murine cells, human dermal fibroblasts and mouse melanoma cells B16 were selected as the models using MTT colorimetric assay. First, fibroblasts or B16 cells were seeded in 96-well culture plate at 2500 cells per well and cultivated overnight until cell attachment. Each compound (10 μM) was added into the culture media in triplicate and incubated for 48 hours, and finally MTT reagent was added into each well to detect absorbance.
Please refer to FIG. 1, which illustrates the growth inhibition of various compounds to human dermal fibroblast and B16 cells.

The next experiment relates to melanoma cells B16 tumor. Briefly: Antitumor activity in B16 tumor-bearing mice. It is filed as in vivo. Conditions: injection into sole of feet, B16 in C57BL/6 mice. On the procedure:
Firstly, a total of 5×10^6 melanoma cells B16 were inoculated into female C57BL/6 mice (about 19˜21 grams/7 to 9 weeks). […] When tumor reached about 4 mm×4 mm in diameter, mice were separated into groups. Each group had four mice in each experiment. Tumor volume were majored by calipers each two days after compound injection into each sole of feet of mice or without compound injection (control), and tumor volume was calculated by following formula: Tumor volume=[…] (Equation I)

The subject of experiment [2] is phosphorylated p38 protein. As to the kind of experiment: Phosphorylated p38 expression by immunoblotting in MCF-7 cells. It is filed as cell-based, human. Conditions: MCF-7, 24-hour treatment, different concentrations. Here is the method:
P38 protein in p38 mitogen-activated protein kinase (MAPK) pathway was chosen to be the index of apoptosis in this experiment, and phosphorylated p38 expression was evaluated using immunoblotting assay known by the skilled person in the art. Cellular protein was harvested after the 24-hour treatment of compound 24 on MCF-7 cells, and then resolved with sodium dodecyl sulfate (SDS)-polyacrylamide gel electrophoresis and developed using immunoblotting. […] In combination with aforementioned experimental results, compound 24 and other compounds could induce cancer cell apoptosis.
(In general: Immunoblotting shows a protein as a band on a membrane.)

Each structure is given as a SMILES string.

As to `Cc1cc(C(=Nc2ccccc2)SSC(=Nc2ccccc2)c2ccc([N+](=O)[O-])c(C)c2)ccc1[N+](=O)[O-]` [Compound 1], the “Survival (% control) of compound (10 μM)” value was determined as 76.5 ± 0.19 % control in the experiment with 293T; 69.8 ± 0.13 % control in the experiment with H1335; 100.9 ± 0.09 % control in the experiment on Cal-27; 71.5 ± 0.09 % control with A549; 80.8 ± 0.08 % control in the experiment with Ca-922; 90.3 ± 0.05 % control in the experiment on A375.

As for `O=[N+]([O-])c1ccc(C(=Nc2ccc(C(F)(F)F)cc2)SSC(=Nc2ccc(C(F)(F)F)cc2)c2ccc([N+](=O)[O-])cc2)cc1` [Compound 4], the “Survival (% control) of compound (10 μM)” value in the experiment on 293T came out at 64.6 ± 0.28 % control; in the experiment on MCF-7, 59.6 ± 0.28 % control; with A2058 it was 92.6 ± 0.05 % control; in the experiment with H1335, 66.0 ± 0.14 % control; in the experiment on Cal-27 it was 102.5 ± 0.06 % control; with A549, 65.4 ± 0.11 % control. In addition, the “Survival (% control) of compound (10 μM)” value was determined as 80.1 ± 0.08 % control with Ca-922 and 84.6 ± 0.08 % control in the experiment with A375. Also, the “sub-G1 DNA peak” value in [1] is 20.64%.

For `O=[N+]([O-])c1ccc(C(=Nc2ccc(Cl)cc2)SSC(=Nc2ccc(Cl)cc2)c2ccc([N+](=O)[O-])cc2)cc1` [Compound 5], the “Survival (% control) of compound (10 μM)” value in the experiment with 293T amounted to 70.9 ± 0.24 % control; in the experiment on MCF-7 it was 54.3 ± 0.32 % control; in the experiment with A2058 it was 97.5 ± 0.02 % control; in the experiment on H1335, 75.8 ± 0.10 % control; in the experiment on Cal-27 it was 100.1 ± 0.07 % control; in the experiment with A549, 82.4 ± 0.06 % control. Further, the “Survival (% control) of compound (10 μM)” value is listed as 79.4 ± 0.08 % control in the experiment on Ca-922 and 79.4 ± 0.11 % control with A375. Also, the “sub-G1 DNA peak” value in [1] worked out at 17.92%.

On to `Cc1cc(C(=Nc2ccc(Cl)cc2)SSC(=Nc2ccc(Cl)cc2)c2ccc([N+](=O)[O-])c(C)c2)ccc1[N+](=O)[O-]` [Compound 7], for which the “Survival (% control) of compound (10 μM)” value turned out to be 71.2 ± 0.23 % control in the experiment on 293T; 51.7 ± 0.34 % control in the experiment with MCF-7; 99.6 ± 0.02 % control with A2058; 67.4 ± 0.13 % control with H1335; 101.7 ± 0.09 % control in the experiment with Cal-27; 78.7 ± 0.07 % control in the experiment on A549. Moreover, the “Survival (% control) of compound (10 μM)” value in the experiment on Ca-922 is 96.2 ± 0.02 % control; in the experiment on A375, 92.4 ± 0.04 % control. Moreover, the “sub-G1 DNA peak” value in experiment [1] is listed as 26.22%.

With `Cc1ccc(N=C(SSC(=Nc2ccc(C)c([N+](=O)[O-])c2)c2ccc(C(F)(F)F)cc2)c2ccc(C(F)(F)F)cc2)cc1[N+](=O)[O-]` [Compound 17], the “Survival (% control) of compound (10 μM)” value amounted to 75.3 ± 0.21 % control with 293T; 81.4 ± 0.08 % control with H1335; 107.1 ± 0.08 % control with Cal-27; 76.9 ± 0.07 % control in the experiment on A549; 82.1 ± 0.07 % control in the experiment with Ca-922; 103.2 ± 0.02 % control with A375.

Take `Cc1c(N=C(SSC(=Nc2cccc([N+](=O)[O-])c2C)c2ccc(F)cc2)c2ccc(F)cc2)cccc1[N+](=O)[O-]` [Compound 18]: the “Survival (% control) of compound (10 μM)” value in the experiment on 293T amounted to 71.1 ± 0.23 % control; in the experiment with MCF-7 it was 33.1 ± 0.47 % control; with A2058 it was 95.9 ± 0.02 % control; with H1335 it was 70.0 ± 0.13 % control; in the experiment with Cal-27, 94.9 ± 0.07 % control; in the experiment with A549, 75.5 ± 0.08 % control. For the same compound, the “Survival (% control) of compound (10 μM)” value in the experiment on Ca-922 came to 79.4 ± 0.09 % control; in the experiment on A375, 91.5 ± 0.04 % control. The “sub-G1 DNA peak” value in [1] is 11.95%.

In the case of `Cc1ccc([N+](=O)[O-])cc1N=C(SSC(=Nc1cc([N+](=O)[O-])ccc1C)c1ccc(F)cc1)c1ccc(F)cc1` [Compound 21], the “Survival (% control) of compound (10 μM)” value stood at 32.8 ± 0.52 % control with 293T; 13.8 ± 0.60 % control in the experiment on MCF-7; 76.3 ± 0.15 % control with A2058; 80.6 ± 0.08 % control with H1335; 76.6 ± 0.20 % control in the experiment on Cal-27; 62.1 ± 0.12 % control with A549. Further, the “Survival (% control) of compound (10 μM)” value with Ca-922 was found to be 66.7 ± 0.13 % control; in the experiment with A375 it was 81.1 ± 0.10 % control. Besides, the “sub-G1 DNA peak” value in [1] is listed as 19.85%.

As for `O=[N+]([O-])c1cc(N=C(SSC(=Nc2ccc(F)c([N+](=O)[O-])c2)c2ccc(C(F)(F)F)cc2)c2ccc(C(F)(F)F)cc2)ccc1F` [Compound 23], the “Survival (% control) of compound (10 μM)” value in the experiment with 293T is reported as 57.8 ± 0.33 % control; in the experiment on MCF-7, 57.1 ± 0.30 % control; in the experiment with A2058, 93.2 ± 0.04 % control; with H1335, 80.2 ± 0.08 % control; in the experiment with Cal-27 it was 92.4 ± 0.16 % control; in the experiment on A549 it was 64.4 ± 0.12 % control. Further, the “Survival (% control) of compound (10 μM)” value in the experiment with Ca-922 is 65.8 ± 0.14 % control; with A375, 94.3 ± 0.03 % control. Moreover, the “sub-G1 DNA peak” value in [1] is recorded as 4.35%. In addition, in the experiment with mouse melanoma cells B16, the “growth inhibition / apoptosis in murine melanoma B16” value is “significantly made”.

Regarding `Cc1c(N=C(SSC(=Nc2cccc([N+](=O)[O-])c2C)c2ccc(C(F)(F)F)cc2)c2ccc(C(F)(F)F)cc2)cccc1[N+](=O)[O-]` [Compound 24], the “Survival (% control) of compound (10 μM)” value came out at 24.2 ± 0.59 % control in the experiment with 293T; 8.6 ± 0.64 % control in the experiment on MCF-7; 34.9 ± 0.42 % control in the experiment on A2058; 26.0 ± 0.32 % control with H1335; 73.5 ± 0.22 % control with Cal-27; 53.4 ± 0.15 % control in the experiment with A549. In addition, the “Survival (% control) of compound (10 μM)” value in the experiment on Ca-922 is 45.5 ± 0.22 % control; with A375, 59.5 ± 0.22 % control. For the same compound, in the experiment on melanoma cells B16 tumor (2 mg/kg), the “tumor volume over time” value is “not markedly increased”. Further, the “tumor volume compared to the untreated group” value with melanoma cells B16 tumor (4 mg/kg) is listed as “significantly suppressed”. Besides, the “phosphorylation of p38 protein” value in experiment [2] is listed as “dependent on the concentration”. In addition, in experiment [1], the “sub-G1 DNA peak” value is recorded as 33.89%. The “growth inhibition / apoptosis in murine melanoma B16” value in the experiment with mouse melanoma cells B16 was “significantly made”.
